Source: US10683272B2 (THE JOHNS HOPKINS UNIVERSITY, priority 2014, dated 2020)

Tests used:
[1] = test system: PSMA+ PC-3 PIP and PSMA− PC-3 flu tumors; test: small animal PET-CT imaging; type: in vivo, NOD/SCID mice; settings: PET-CT
Method: Mice (n=3 for ^86Y-4 or ^86Y-6 and n=2 for ^86Y-5) were injected via the tail vein with 3.33-6.21 MBq (90-168 μCi) of radiotracer formulated in 100 μL of saline at pH ˜7. […] At different time points, anesthetized individual mice were placed in the prone position on the scanner gantry and secured with medical tape while the anesthesia flow rate was increased to 0.8 L/min. Images were reconstructed using the FORE/2D-OSEM method (two iterations, 16 subsets) and included correction for radioactive decay, scanner dead time, and scattered radiation. Partial volume correction (PVC) was not performed. After each PET scan, a CT scan was acquired for anatomic co-registration. To facilitate PET and CT image co-registration, a special animal bed was employed which fits both the PET and CT scanners. The animals were under anesthesia and immobilized when moving between scanners as well as during both scans. The reconstructed PET and CT images were then manually co-registered through rigid transformation, by aligning natural landmarks (such as the animal limbs and the bed contour) using the AMIDE software (from sourceforge.net/amide).
Dynamic, whole-body PET and CT images were acquired on an eXplore VISTA small-animal PET (GE Healthcare, Little Chalfont, Buckinghamshire, UK) and an X-SPECT small SPECT/CT system (Gamma Medica Ideas, Northridge, Calif.), respectively.

[2] = baboon PET imaging and pharmacokinetics; type: in vivo, Papio anubis (baboon)
Description: A male Papio anubis (8 y, 27.1 kg) was used to study the biodistribution of ^86Y-6. The baboon was positioned supine during image acquisition. For attenuation correction a low-dose CT image was acquired immediately before the first and last PET images. PET and CT images were co-registered across time points using a Hermes workstation (Hermes Medical Solutions, Greenville, S.C.). Fourteen source organ contours were delineated on the CT with the aid of fused PET/CT images. Decay-corrected mean activity concentrations (Bq/g) were extracted for each source organ from the PET images. Contours were drawn on the PET images of the kidneys, renal cortices, and prostate. The decay-corrected total activity per organ quantified within the PET images had nearly one-to-one correspondence with the administered radioactivity for the first six time points (1 h or less), which confirmed that the administered radioactivity was fully accounted for on the PET images, after which the total amount was less than the administered amount due to voiding. The total amount of radioactivity quantified in each of the PET images was used to obtain the whole-body retention kinetics.
Nine static PET images were acquired at 5, 10, 15, 20, 35 min, 1, 2, 3.5 and 23 h after intravenous administration of 80.7 MBq (2.2 mCi) of ^86Y-6 as a bolus. Images were acquired in 2D mode on a Discovery Rx VCT scanner (GE Healthcare).
For each time-point, the activity concentration (in Bq/cm^3) was measured in each of the 14 delineated organs and multiplied by the organ volume to obtain the total activity per time point per organ. The measured values were then decay-corrected and divided by the baboon organ mass, determined by the CT density and volume from the drawn contours, and the injected radioactivity to obtain the fraction of initial radioactivity per gram (FIA/g) for each time point and each organ. The baboon FIA/g values were then converted to human FIA (per organ) using the following equation (Schwartz et al., 2011; Woodard et al., 1975): […]
That approach assumes that the concentration of activity in a particular tissue relative to the overall concentration in the whole body is preserved across species (i.e., organ concentration/total body concentration is the same for baboon and man). The resulting human FIA values were plotted as a function of time (nine data points) for each organ and fit to a bi-exponential expression: FIA(t)=A1.e^−(λ1^bio^.t)+A2.e^−(Δ2^bio^.t) (2)

[3] = bi-exponential fit, listed as [^86Y]6
[4] = whole-body retention kinetics fit

With `O=C([O-])CN1CCN(CC(=O)[O-])CCN(CC(=O)[O-])C(Cc2ccc(NC(=S)NCCCCNC(=O)CCCCCCC(=O)NCCCC[C@H](NC(=O)N[C@@H](CCC(=O)O)C(=O)O)C(=O)O)cc2)CN(CC(=O)[O-])CC1.[86Y+3]` (stereo partly shown) [^86Y-6] the “earliest time of clear delineation of PSMA+ PC-3 PIP tumor” value [1] was 15 min, the “percent of kidney radioactivity cleared in the rapid phase” value ([2]; baboon) was “Sixty-eight” and the “percent of renal cortex radioactivity cleared in the rapid phase” value ([2]; baboon) was 66%. For the same molecule, the “highest uptake in kidneys” value ([2]; baboon, about 25 min post-injection) was 8 % ID/g, the “Brain, biological half-life of A1” value ([2]; bi-exponential fit) was 0.71 h and the “Brain, biological half-life of A2” value ([2]; bi-exponential fit) was 8.71 h. For the same molecule, the “Brain, fitted parameter A1” value ([2]; bi-exponential fit) was 0.53 % ID, the “Brain, fitted parameter A2” value ([2]; bi-exponential fit) was 0.11 % ID and the “Heart, biological half-life of A1” value ([2]; bi-exponential fit) was 0.29 h. For the same molecule, the “Heart, biological half-life of A2” value ([2]; bi-exponential fit) was 6.49 h, the “Heart, fitted parameter A1” value ([2]; bi-exponential fit) was 1.55 % ID and the “Heart, fitted parameter A2” value ([2]; bi-exponential fit) was 0.29 % ID. For the same molecule, the “Kidneys, biological half-life of A1” value ([2]; bi-exponential fit) was 0.84 h, the “Kidneys, biological half-life of A2” value ([2]; bi-exponential fit) was 16.6 h and the “Kidneys, fitted parameter A1” value ([2]; bi-exponential fit) was 6.36 % ID. The “Kidneys, fitted parameter A2” value ([2]; bi-exponential fit) was 2.98 % ID, the “Large intestine, biological half-life of A1” value ([2]; bi-exponential fit) was 0.25 h and the “Large intestine, biological half-life of A2” value ([2]; bi-exponential fit) was 5.97 h. The “Large intestine, fitted parameter A1” value ([2]; bi-exponential fit) was 0.45 % ID, the “Large intestine, fitted parameter A2” value ([2]; bi-exponential fit) was 0.30 % ID and the “Liver, biological half-life of A1” value ([2]; bi-exponential fit) was 0.38 h. For the same molecule, the “Liver, biological half-life of A2” value ([2]; bi-exponential fit) was 7.71 h, the “Liver, fitted parameter A1” value ([2]; bi-exponential fit) was 4.77 % ID and the “Liver, fitted parameter A2” value ([2]; bi-exponential fit) was 1.52 % ID. The “Lungs, biological half-life of A1” value ([2]; bi-exponential fit) was 0.42 h, the “Lungs, biological half-life of A2” value ([2]; bi-exponential fit) was 6.29 h and the “Lungs, fitted parameter A1” value ([2]; bi-exponential fit) was 2.78 % ID. For the same molecule, the “Lungs, fitted parameter A2” value ([2]; bi-exponential fit) was 1.27 % ID, the “Muscle, biological half-life of A1” value ([2]; bi-exponential fit) was 1.98 h and the “Muscle, biological half-life of A2” value ([2]; bi-exponential fit) was 69.31 h. The “Muscle, fitted parameter A1” value ([2]; bi-exponential fit) was 14.98 % ID, the “Muscle, fitted parameter A2” value ([2]; bi-exponential fit) was 0.56 % ID and the “Pancreas, biological half-life of A1” value ([2]; bi-exponential fit) was 0.66 h. For the same molecule, the “Pancreas, biological half-life of A2” value ([2]; bi-exponential fit) was 10.60 h, the “Pancreas, fitted parameter A1” value ([2]; bi-exponential fit) was 0.24 % ID and the “Pancreas, fitted parameter A2” value ([2]; bi-exponential fit) was 0.05 % ID. The “Prostate, biological half-life of A1” value ([2]; bi-exponential fit) was 0.67 h, the “Prostate, biological half-life of A2” value ([2]; bi-exponential fit) was 5.58 h and the “Prostate, fitted parameter A1” value ([2]; bi-exponential fit) was 0.02 % ID. The “Prostate, fitted parameter A2” value ([2]; bi-exponential fit) was 0.02 % ID, the “Renal cortex, biological half-life of A1” value ([2]; bi-exponential fit) was 1.1 h and the “Renal cortex, biological half-life of A2” value ([2]; bi-exponential fit) was “about 19 h”. The “Renal cortex, fitted parameter A1” value ([2]; bi-exponential fit) was 4.23 % ID, the “Renal cortex, fitted parameter A2” value ([2]; bi-exponential fit) was 2.16 % ID and the “Salivary glands, biological half-life of A1” value ([2]; bi-exponential fit) was 1.56 h. The “Salivary glands, biological half-life of A2” value ([2]; bi-exponential fit) was 4.47 h, the “Salivary glands, fitted parameter A1” value ([2]; bi-exponential fit) was 0.30 % ID and the “Salivary glands, fitted parameter A2” value ([2]; bi-exponential fit) was 0.08 % ID. For the same molecule, the “Small intestine, biological half-life of A1” value ([2]; bi-exponential fit) was 0.26 h, the “Small intestine, biological half-life of A2” value ([2]; bi-exponential fit) was 10.17 h and the “Small intestine, fitted parameter A1” value ([2]; bi-exponential fit) was 0.24 % ID. For the same molecule, the “Small intestine, fitted parameter A2” value ([2]; bi-exponential fit) was 0.10 % ID, the “Spleen, biological half-life of A1” value ([2]; bi-exponential fit) was 1.49 h and the “Spleen, biological half-life of A2” value ([2]; bi-exponential fit) was 18.74 h. The “Spleen, fitted parameter A1” value ([2]; bi-exponential fit) was 0.12 % ID, the “Spleen, fitted parameter A2” value ([2]; bi-exponential fit) was 0.04 % ID and the “Stomach, biological half-life of A1” value ([2]; bi-exponential fit) was 0.46 h. The “Stomach, biological half-life of A2” value ([2]; bi-exponential fit) was 6.14 h, the “Stomach, fitted parameter A1” value ([2]; bi-exponential fit) was 0.15 % ID and the “Stomach, fitted parameter A2” value ([2]; bi-exponential fit) was 0.09 % ID. For the same molecule, the “Kidneys, biological half-life of A2” value [2, 3] was 16.62 h, the “Renal cortex, biological half-life of A2” value [2, 3] was 19.19 h and the “WB retention, biological half-life of A1” value [2, 4] was 5.62 h. The “WB retention, fitted parameter A1” value [2, 4] was 100.00 % ID.
